Experiments:
Assay type in all cases: in vivo
[1] = tested on: sedge, umbrella (small-flower umbrella sedge, Cyperus difformis); experiment: Test B flooded paddy test, visual plant response rating 0-100; conditions: 250 g ai/ha, Flood, applied to paddy water, evaluated after 13 days
Outline: (§1)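 Visual scores versus untreated controls were recorded 13 days after treatment of greenhouse-held plants. At the 2-leaf stage, pots were flooded 3 cm above the soil surface and compounds added straight to the water.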

[2] = tested on: barnyardgrass (Echinochloa crusgalli); experiment: as above; conditions: 250 g ai/ha, Flood, applied to paddy water, evaluated after 13 days
Outline: as §1

rice (Oryza sativa) = experiment: as above; conditions: 250 g ai/ha, Flood, applied to paddy water, evaluated after 13 days
Outline: as §1

[3] = tested on: ducksalad (Heteranthera limosa); experiment: as above; conditions: 250 g ai/ha, Flood, applied to paddy water, evaluated after 13 days
Outline: as §1

corn (Zea mays) [4] = experiment: Test A postemergence application, visual injury rating 0-100
Outline: (§2)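 Plants were grown in a loam soil-sand blend and treated with test chemical in a non-phytotoxic solvent mixture containing surfactant, either sprayed on soil preemergence or applied postemergence to 2-10 cm plants. After 10 days in a greenhouse, injury was scored visually against untreated controls, 0 meaning no effect and 100 complete control.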

[5] = tested on: horseweed (Erigeron canadensis); experiment: as above
Outline: as §2

[6] = tested on: ragweed (common ragweed, Ambrosia artemisiifolia); experiment: as above
Outline: as §2

[7] = tested on: green foxtail (Setaria viridis); experiment: as above
Outline: as §2

[8] = tested on: blackgrass (Alopecurus myosuroides); experiment: as above
Outline: as §2

kochia (Bassia scoparia) [9] = experiment: as above
Outline: as §2

[10] = tested on: wheat (Triticum aestivum); experiment: as above
Outline: as §2

[11] = tested on: palmer (palmer amaranth, palmer pigweed, Amaranthus palmeri); experiment: as above
Outline: as §2

soybean (Glycine max) [12] = experiment: as above
Outline: as §2

[13] = tested on: ryegrass, Italian (italian ryegrass, Lolium multiflorum); experiment: as above
Outline: as §2

[14] = tested on: oat, wild (wild oat, Avena fatua); experiment: as above
Outline: as §2

[15] = tested on: galium (catchweed bedstraw, Galium aparine); experiment: as above
Outline: as §2

[16] = tested on: barnyardgrass (Echinochloa crus-galli); experiment: as above
Outline: as §2

corn (Zea mays) [17] = experiment: Test A preemergence soil spray, visual injury rating 0-100; conditions: 10 days
Outline: as §2

[18] = tested on: ragweed (common ragweed, Ambrosia artemisiifolia); experiment: as above; conditions: 10 days
Outline: as §2

[19] = tested on: green foxtail (Setaria viridis); experiment: as above; conditions: 10 days
Outline: as §2

[20] = tested on: blackgrass (Alopecurus myosuroides); experiment: as above; conditions: 10 days
Outline: as §2

kochia (Bassia scoparia) [21] = experiment: as above; conditions: 10 days
Outline: as §2

[22] = tested on: wheat (Triticum aestivum); experiment: as above; conditions: 10 days
Outline: as §2

[23] = tested on: palmer (palmer amaranth, palmer pigweed, Amaranthus palmeri); experiment: as above; conditions: 10 days
Outline: as §2

soybean (Glycine max) [24] = experiment: as above; conditions: 10 days
Outline: as §2

[25] = tested on: ryegrass, Italian (italian ryegrass, Lolium multiflorum); experiment: as above; conditions: 10 days
Outline: as §2

[26] = tested on: oat, wild (wild oat, Avena fatua); experiment: as above; conditions: 10 days
Outline: as §2

[27] = tested on: barnyardgrass (Echinochloa crus-galli); experiment: as above; conditions: 10 days
Outline: as §2

[28] = 62 g ai/ha, postemergence, 10 days, 0 = no effect, 100 = complete control
[29] = Postemergence, 16 g ai/ha, greenhouse 10 days, 0 no effect, 100 complete control
[30] = 62 g ai/ha, 0 = no effect, 100 = complete control

## CC(C)COC(=O)C1=CCC(NC(=O)C2(C)CN(c3cc(F)cc(F)c3)C(=O)O2)C1 (stereo not shown) [Compound 97]
[1]
  Plant response rating, Sedge, Umbrella (0 to 100 scale, 0 is no effect and 100 is complete control): 0
[2]
  Plant response rating, Barnyardgrass (0 to 100 scale, 0 is no effect and 100 is complete control): 0
Rice (Oryza sativa)
  Plant response rating, Rice (0 to 100 scale, 0 is no effect and 100 is complete control): 0
[3]
  Plant response rating, Ducksalad (0 to 100 scale, 0 is no effect and 100 is complete control): 0
Corn (Zea mays) [4]; [28]
  Corn plant response rating (0-100): 0
Corn (Zea mays) [4]; [29]
  Corn plant response rating (0 to 100 scale): 0
[5]; [28]
  Horseweed plant response rating (0-100): 0
[5]; [29]
  Horseweed plant response rating (0 to 100 scale): 0
[6]; [28]
  Ragweed plant response rating (0-100): 20
[6]; [29]
  Ragweed plant response rating (0 to 100 scale): 0
[7]; [28]
  Foxtail, Green plant response rating (0-100): 0
[7]; [29]
  Foxtail, Green plant response rating (0 to 100 scale): 0
[8]; [28]
  Blackgrass plant response rating (0-100): 0
[8]; [29]
  Blackgrass plant response rating (0 to 100 scale): 0
Kochia (Bassia scoparia) [9]; [28]
  Kochia plant response rating (0-100): 70
Kochia (Bassia scoparia) [9]; [29]
  Kochia plant response rating (0 to 100 scale): 30
[10]; [28]
  Wheat plant response rating (0-100): 10
[10]; [29]
  Wheat plant response rating (0 to 100 scale): 0
[11]; [28]
  Pigweed, Palmer plant response rating (0-100): 10
[11]; [29]
  Pigweed, Palmer plant response rating (0 to 100 scale): 0
Soybean (Glycine max) [12]; [28]
  Soybean plant response rating (0-100): 40
Soybean (Glycine max) [12]; [29]
  Soybean plant response rating (0 to 100 scale): 0
[13]; [28]
  Ryegrass, Italian plant response rating (0-100): 0
[13]; [29]
  Ryegrass, Italian plant response rating (0 to 100 scale): 0
[14]; [28]
  Oat, Wild plant response rating (0-100): 0
[14]; [29]
  Oat, Wild plant response rating (0 to 100 scale): 0
[15]; [28]
  Galium plant response rating (0-100): 60
[15]; [29]
  Galium plant response rating (0 to 100 scale): 20
[16]; [28]
  Barnyardgrass plant response rating (0-100): 20
[16]; [29]
  Barnyardgrass plant response rating (0 to 100 scale): 0
Corn (Zea mays) [17]; 16 g ai/ha, 0 to 100 scale
  Corn plant response rating: 0
Corn (Zea mays) [17]; [30]
  Corn plant response rating (0-100): 0
[18]; 16 g ai/ha, 0 to 100 scale
  Ragweed plant response rating: 0
[18]; [30]
  Ragweed plant response rating (0-100): 0
[19]; 16 g ai/ha, 0 to 100 scale
  Foxtail, Green plant response rating: 20
[19]; [30]
  Foxtail, Green plant response rating (0-100): 60
[20]; 16 g ai/ha, 0 to 100 scale
  Blackgrass plant response rating: 0
[20]; [30]
  Blackgrass plant response rating (0-100): 0
Kochia (Bassia scoparia) [21]; 16 g ai/ha, 0 to 100 scale
  Kochia plant response rating: 0
Kochia (Bassia scoparia) [21]; [30]
  Kochia plant response rating (0-100): 0
[22]; 16 g ai/ha, 0 to 100 scale
  Wheat plant response rating: 0
[22]; [30]
  Wheat plant response rating (0-100): 10
[23]; 16 g ai/ha, 0 to 100 scale
  Pigweed, Palmer plant response rating: 0
[23]; [30]
  Pigweed, Palmer plant response rating (0-100): 0
Soybean (Glycine max) [24]; 16 g ai/ha, 0 to 100 scale
  Soybean plant response rating: 0
Soybean (Glycine max) [24]; [30]
  Soybean plant response rating (0-100): 0
[25]; 16 g ai/ha, 0 to 100 scale
  Ryegrass, Italian plant response rating: 0
[25]; [30]
  Ryegrass, Italian plant response rating (0-100): 0
[26]; 16 g ai/ha, 0 to 100 scale
  Oat, Wild plant response rating: 0
[26]; [30]
  Oat, Wild plant response rating (0-100): 0
[27]; 16 g ai/ha, 0 to 100 scale
  Barnyardgrass plant response rating: 0
[27]; [30]
  Barnyardgrass plant response rating (0-100): 0

— US20260285850A1, “SUBSTITUTED OXAZOLIDINONES AND IMIDAZOLINONES AS HERBICIDES” (FMC CORPORATION, priority 2023, published 2026)
